Assay results taken from publication PMC6146777, “Biocompatible glyconanomaterials based on HPMA-copolymer for specific targeting of galectin-3” (Journal of Nanobiotechnology, 2018).

Target: T1, Recombinant human His6-tagged galectin-3 (Gal-3) (Homo sapiens, UniProt P17931)
T1 construct: gene LGALS3; His6-tagged Gal-3 (tag kept), expressed in E. coli Rosetta 2 (DE3) pLysS, 28,023 Da calculated, monomer in solution
Experiment: competitive ELISA, Gal-3 binding to immobilized asialofetuin
Details: 6.5 µM Gal-3, EPBS buffer pH 7.5, 2 mM EDTA, 2 h; competitive with asialofetuin

T1 sequence (P17931 2-250): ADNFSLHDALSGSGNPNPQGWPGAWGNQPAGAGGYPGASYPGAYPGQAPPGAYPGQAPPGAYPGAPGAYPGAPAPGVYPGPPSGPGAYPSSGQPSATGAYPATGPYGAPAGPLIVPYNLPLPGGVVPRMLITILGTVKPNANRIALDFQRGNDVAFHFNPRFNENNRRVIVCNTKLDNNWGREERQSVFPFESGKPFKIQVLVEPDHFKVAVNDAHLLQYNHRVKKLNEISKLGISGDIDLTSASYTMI

| IC50 [µM] | Compound |
| --- | --- |
| 64 ± 20 | CC(=O)N[C@H]1[C@H](O[C@H]2[C@H](O)[C@@H](NC(C)=O)C(O)O[C@@H]2CO)O[C@H](CO)[C@H](O)[C@@H]1O (stereo partly drawn) [compound 5, 2-acetamido-2-deoxy-β-D-galactopyranosyl-(1 → 4)-2-acetamido-2-deoxy-D-glucopyranose] |
| 53 ± 16 | CC(=O)N[C@H]1C(O)O[C@H](CO)[C@@H](O[C@@H]2O[C@H](CO)[C@H](O)[C@H](O)[C@H]2O)[C@@H]1O (some centres unmarked) [LacNAc] |
